From patent US20250282794A1 (CURADEV PHARMA LTD, priority 2022, published 2025)

biological target: recombinant full length HPK-1 enzyme (Homo sapiens (Human), UniProt Q92918); test: HPK-1 biochemical enzyme assay (ADP-Glo kinase inhibition); settings: recombinant full length HPK-1 6.8 nM, 10 μM ATP, 12.5 μM MBP, 30 mins at 25° C.
Experimental: HPK-1 biochemical enzyme assay
Compound inhibitory potency was measured in an HPK-1 kinase inhibition assay. Briefly, recombinant full length HPK-1 enzyme (6.8 nM) was incubated with 10 μM ATP and 12.5 μM swine myelin basic protein (MBP) for 30 mins. at 25° C. in the presence of various concentrations of test compound or vehicle in 40 mM Tris.Cl pH7.4 buffer containing 20 mM MgCl2, 50 μM DTT and 0.1 mg/mL BSA. Reactions were quenched and reaction mixtures were then analyzed by an ADP-Glo kit which measures the formed ADP. The percent inhibition was calculated from the substrate conversion considering no enzyme control reactions for 100% inhibition and vehicle only reactions for 0% inhibition. The compounds were dissolved in DMSO and evaluated at 10 concentrations to determine an IC50 value.
In the below table A denotes an HPK-1 IC50≤10 nM, B denotes an HPK-1 IC50>10 nM but≤100 nM and C denotes an HPK-1 IC50>100 nM but≤1000 nM.

Sequence of recombinant full length HPK-1 enzyme (Q92918 whole entry, species assumed): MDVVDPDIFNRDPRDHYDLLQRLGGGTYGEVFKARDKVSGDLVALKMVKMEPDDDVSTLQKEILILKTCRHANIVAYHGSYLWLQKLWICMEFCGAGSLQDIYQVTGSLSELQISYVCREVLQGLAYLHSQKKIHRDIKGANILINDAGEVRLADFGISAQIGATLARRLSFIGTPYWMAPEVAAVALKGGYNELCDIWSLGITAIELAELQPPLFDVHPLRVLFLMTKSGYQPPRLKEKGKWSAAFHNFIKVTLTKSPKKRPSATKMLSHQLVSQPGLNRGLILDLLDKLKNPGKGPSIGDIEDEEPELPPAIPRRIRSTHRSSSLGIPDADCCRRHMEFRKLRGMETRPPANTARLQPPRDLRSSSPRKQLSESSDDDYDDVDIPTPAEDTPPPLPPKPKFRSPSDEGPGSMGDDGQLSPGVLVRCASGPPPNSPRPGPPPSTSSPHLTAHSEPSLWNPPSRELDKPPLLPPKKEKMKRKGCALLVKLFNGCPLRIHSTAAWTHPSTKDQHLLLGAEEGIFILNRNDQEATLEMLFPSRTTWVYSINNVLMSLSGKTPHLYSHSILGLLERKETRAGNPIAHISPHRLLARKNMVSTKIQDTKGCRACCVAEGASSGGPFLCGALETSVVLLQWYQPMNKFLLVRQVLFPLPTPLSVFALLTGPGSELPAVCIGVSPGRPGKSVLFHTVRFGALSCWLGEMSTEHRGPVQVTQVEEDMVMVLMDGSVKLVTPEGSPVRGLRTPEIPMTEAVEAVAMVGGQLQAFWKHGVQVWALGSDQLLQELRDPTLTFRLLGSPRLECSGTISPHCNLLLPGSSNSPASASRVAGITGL

| IC50 [nM] | Compound |
| --- | --- |
| ≤ 10 | COCCN1CCN(c2ccc(NC(=O)c3c(Nc4cnc5c(c4C)NCC(C)O5)cc[nH]c3=O)cc2)CC1 (stereo not drawn) [Example 171, 4-((3,8-dimethyl-2,3-dihydro-1H-pyrido[2,3-b][1,4]oxazin-7-yl)amino)-N-(4-(4-(2-methoxyethyl)piperazin-1-yl)phenyl)-2-oxo-1,2-dihydropyridine-3-carboxamide] |
| 10 to 100 | Cc1c(Nc2cc[nH]c(=O)c2C(=O)Nc2ccc(N3CCN(C)CC3)cc2)cnc2c1NCC(C)(C)O2 [Example 172, N-(4-(4-methylpiperazin-1-yl)phenyl)-2-oxo-4-((3,3,8-trimethyl-2,3-dihydro-1H-pyrido[2,3-b][1,4]oxazin-7-yl)amino)-1,2-dihydropyridine-3-carboxamide] |
| 10 to 100 | COCCN1CCN(c2ccc(NC(=O)c3c(Nc4cnc5c(c4C)NCC(C)(C)O5)cc[nH]c3=O)cc2)CC1 [Example 173, N-(4-(4-(2-methoxyethyl)piperazin-1-yl)phenyl)-2-oxo-4-((3,3,8-trimethyl-2,3-dihydro-1H-pyrido[2,3-b][1,4]oxazin-7-yl)amino)-1,2-dihydropyridine-3-carboxamide] |
| ≤ 10 | Cc1c(Nc2cc[nH]c(=O)c2C(=O)Nc2ccc(N3CCN(Cc4ccn[nH]4)CC3)cc2)cnc2c1NCCO2 [Example 174, N-(4-(4-((1H-pyrazol-5-yl)methyl)piperazin-1-yl)phenyl)-4-((8-methyl-2,3-dihydro-1H-pyrido[2,3-b][1,4]oxazin-7-yl)amino)-2-oxo-1,2-dihydropyridine-3-carboxamide] |
| ≤ 10 | Cc1c(Nc2cc[nH]c(=O)c2C(=O)Nc2ccc(N3CCN(CCCO)CC3)cc2)cnc2c1NCCO2 [Example 175, N-(4-(4-(3-hydroxypropyl)piperazin-1-yl)phenyl)-4-((8-methyl-2,3-dihydro-1H-pyrido[2,3-b][1,4]oxazin-7-yl)amino)-2-oxo-1,2-dihydropyridine-3-carboxamide] |
| ≤ 10 | Cc1c(Nc2cc[nH]c(=O)c2C(=O)Nc2ccc(N3CCN(CC4CCC(=O)N4)CC3)cc2)cnc2c1NCCO2 (stereo not drawn) [Example 176, 4-((8-methyl-2,3-dihydro-1H-pyrido[2,3-b][1,4]oxazin-7-yl)amino)-2-oxo-N-(4-(4-((5-oxopyrrolidin-2-yl)methyl)piperazin-1-yl)phenyl)-1,2-dihydropyridine-3-carboxamide] |
| ≤ 10 | Cc1c(Nc2cc[nH]c(=O)c2C(=O)Nc2ccc(N3CCN(C(C)C)CC3)cc2)cnc2c1NCC(C)(C)O2 [Example 177, N-(4-(4-isopropylpiperazin-1-yl)phenyl)-2-oxo-4-((3,3,8-trimethyl-2,3-dihydro-1H-pyrido[2,3-b][1,4]oxazin-7-yl)amino)-1,2-dihydropyridine-3-carboxamide] |
| ≤ 10 | Cc1c(Nc2cc[nH]c(=O)c2C(=O)Nc2ccc(N3CCN(CCC#N)CC3)cc2)cnc2c1NCCO2 [Example 178, N-(4-(4-(2-cyanoethyl)piperazin-1-yl)phenyl)-4-((8-methyl-2,3-dihydro-1H-pyrido[2,3-b][1,4]oxazin-7-yl)amino)-2-oxo-1,2-dihydropyridine-3-carboxamide] |
| ≤ 10 | Cc1c(Nc2cc[nH]c(=O)c2C(=O)Nc2ccc(N3CCN(C4CCC4)CC3)cc2)cnc2c1NCCO2 [Example 179, N-(4-(4-cyclobutylpiperazin-1-yl)phenyl)-4-((8-methyl-2,3-dihydro-1H-pyrido[2,3-b][1,4]oxazin-7-yl)amino)-2-oxo-1,2-dihydropyridine-3-carboxamide] |
| 10 to 100 | Cc1c(Nc2cc[nH]c(=O)c2C(=O)Nc2ccc3c(c2)CN(C)C(=O)C3)cnc2c1NCCO2 [Example 180, 4-((8-methyl-2,3-dihydro-1H-pyrido[2,3-b][1,4]oxazin-7-yl)amino)-N-(2-methyl-3-oxo-1,2,3,4-tetrahydroisoquinolin-7-yl)-2-oxo-1,2-dihydropyridine-3-carboxamide] |
| ≤ 10 | Cc1c(Nc2cc[nH]c(=O)c2C(=O)Nc2ccc(N3CCN(C(=O)N(C)C)CC3)cc2)cnc2c1NCC(C)O2 (stereo not drawn) [Example 182, 4-(4-(4-((3,8-dimethyl-2,3-dihydro-1H-pyrido[2,3-b][1,4]oxazin-7-yl)amino)-2-oxo-1,2-dihydropyridine-3-carboxamido)phenyl)-N,N-dimethylpiperazine-1-carboxamide] |
| ≤ 10 | Cc1c(Nc2cc[nH]c(=O)c2C(=O)Nc2ccc(N3CCN(C(C)C)CC3)c(F)c2)cnc2c1NCC(C)O2 (stereo not drawn) [Example 183, 4-((3,8-dimethyl-2,3-dihydro-1H-pyrido[2,3-b][1,4]oxazin-7-yl)amino)-N-(3-fluoro-4-(4-isopropylpiperazin-1-yl)phenyl)-2-oxo-1,2-dihydropyridine-3-carboxamide] |
| ≤ 10 | Cc1c(Nc2cc[nH]c(=O)c2C(=O)Nc2ccc(C3CC(=O)N(C)C3)cc2)cnc2c1NCCO2 (stereo not drawn) [Example 184, 4-((8-methyl-2,3-dihydro-1H-pyrido[2,3-b][1,4]oxazin-7-yl)amino)-N-(4-(1-methyl-5-oxopyrrolidin-3-yl)phenyl)-2-oxo-1,2-dihydropyridine-3-carboxamide] |
| ≤ 10 | COCCN1CCN(c2ccc(NC(=O)c3c(Nc4cnc5c(c4C)NCC(C)O5)cc[nH]c3=O)cc2F)CC1 (stereo not drawn) [Example 185, 4-((3,8-dimethyl-2,3-dihydro-1H-pyrido[2,3-b][1,4]oxazin-7-yl)amino)-N-(3-fluoro-4-(4-(2-methoxyethyl)piperazin-1-yl)phenyl)-2-oxo-1,2-dihydropyridine-3-carboxamide] |
| ≤ 10 | Cc1c(Nc2cc[nH]c(=O)c2C(=O)Nc2ccc(N3CCN(CCO)CC3)c(F)c2)cnc2c1NCC(C)O2 (stereo not drawn) [Example 186, 4-((3,8-dimethyl-2,3-dihydro-1H-pyrido[2,3-b][1,4]oxazin-7-yl)amino)-N-(3-fluoro-4-(4-(2-hydroxyethyl)piperazin-1-yl)phenyl)-2-oxo-1,2-dihydropyridine-3-carboxamide] |
| ≤ 10 | Cc1c(Nc2cc[nH]c(=O)c2C(=O)Nc2ccc(N3CCN(C4CCCC4)CC3)cc2)cnc2c1NCC(C)O2 (stereo not drawn) [Example 187, N-(4-(4-cyclopentylpiperazin-1-yl)phenyl)-4-((3,8-dimethyl-2,3-dihydro-1H-pyrido[2,3-b][1,4]oxazin-7-yl)amino)-2-oxo-1,2-dihydropyridine-3-carboxamide] |
| 10 to 100 | CCC1CNc2c(ncc(Nc3cc[nH]c(=O)c3C(=O)Nc3ccc(N4CCN(C)CC4)cc3)c2C)O1 (stereo not drawn) [Example 188, 4-((3-ethyl-8-methyl-2,3-dihydro-1H-pyrido[2,3-b][1,4]oxazin-7-yl)amino)-N-(4-(4-methylpiperazin-1-yl)phenyl)-2-oxo-1,2-dihydropyridine-3-carboxamide] |
| 10 to 100 | Cc1c(Nc2cc[nH]c(=O)c2C(=O)Nc2ccc(N3CCN(C)CC3)cc2)cnc2c1NCC(C(C)C)O2 (stereo not drawn) [Example 189, 4-((3-isopropyl-8-methyl-2,3-dihydro-1H-pyrido[2,3-b][1,4]oxazin-7-yl)amino)-N-(4-(4-methylpiperazin-1-yl)phenyl)-2-oxo-1,2-dihydropyridine-3-carboxamide] |
| 10 to 100 | Cc1c(Nc2cc[nH]c(=O)c2C(=O)Nc2ccc(N3CCN(C)CC3)cc2)cnc2c1NCC1(CC1)O2 [Example 190, 4-((8′-methyl-1′,2′-dihydrospiro[cyclopropane-1,3′-pyrido[2,3-b][1,4]oxazin]-7′-yl)amino)-N-(4-(4-methylpiperazin-1-yl)phenyl)-2-oxo-1,2-dihydropyridine-3-carboxamide] |
| 10 to 100 | Cc1c(Nc2cc[nH]c(=O)c2C(=O)Nc2ccc(N3CCN(C)CC3)c(C#N)c2)cnc2c1NCC(C)O2 (stereo not drawn) [Example 191, N-(3-cyano-4-(4-methylpiperazin-1-yl)phenyl)-4-((3,8-dimethyl-2,3-dihydro-1H-pyrido[2,3-b][1,4]oxazin-7-yl)amino)-2-oxo-1,2-dihydropyridine-3-carboxamide] |
| 10 to 100 | Cc1c(Nc2cc[nH]c(=O)c2C(=O)Nc2cnn(C3CCN(C)CC3)c2)cnc2c1NCC(C)O2 (stereo not drawn) [Example 192, 4-((3,8-dimethyl-2,3-dihydro-1H-pyrido[2,3-b][1,4]oxazin-7-yl)amino)-N-(1-(1-methylpiperidin-4-yl)-1H-pyrazol-4-yl)-2-oxo-1,2-dihydropyridine-3-carboxamide] |
| ≤ 10 | Cc1c(Nc2cc[nH]c(=O)c2C(=O)Nc2ccc(N3CCN(Cc4ccn[nH]4)CC3)cc2)cnc2c1NCC(C)O2 (stereo not drawn) [Example 193, N-(4-(4-((1H-pyrazol-5-yl)methyl)piperazin-1-yl)phenyl)-4-((3,8-dimethyl-2,3-dihydro-1H-pyrido[2,3-b][1,4]oxazin-7-yl)amino)-2-oxo-1,2-dihydropyridine-3-carboxamide] |
| 100 to 1000 | Cc1cc(N2CCN(C)CC2)ccc1NC(=O)c1c(Nc2cnc3c(c2C)NCCO3)cc[nH]c1=O [Example 195, 4-((8-methyl-2,3-dihydro-1H-pyrido[2,3-b][1,4]oxazin-7-yl)amino)-N-(2-methyl-4-(4-methylpiperazin-1-yl)phenyl)-2-oxo-1,2-dihydropyridine-3-carboxamide] |

| Compound | IC50 [nM] |
| --- | --- |
| Cc1c(Nc2cc[nH]c(=O)c2C(=O)Nc2ccc(N3CC4CCC(C3)N4C)cc2)cnc2c1NCC(C)O2 (stereo not drawn) [Example 181, 4-((3,8-dimethyl-2,3-dihydro-1H-pyrido[2,3-b][1,4]oxazin-7-yl)amino)-N-(4-(8-methyl-3,8-diazabicyclo[3.2.1]octan-3-yl)phenyl)-2-oxo-1,2-dihydropyridine-3-carboxamide] | 10 to 100 |
